Key:
[1] = water solubility of crystal modifications; format: physicochemical; details: over relevant temperature ranges; compared with modification A
[2] = thermodynamic stability (DSC, solubility tests and other experiments); format: physicochemical; details: compared with modification A
Experimental: Characteristic for modification B is also the thermogram in DSC (differential scanning calorimetry, see FIG. 5). It has an endothermic peak in the range from 120° C. to 128° C. depending on purity. For example, crystal modification B in pure form has a peak temperature of 128° C. and an endothermic signal around 90 J/g. This thermogram is characteristically different from the thermogram of the modification A (see FIG. 6), which has an endothermic peak at about 112° C. and an endothermic signal of 76 J/g. The measurement was carried out on a Metier Toledo 820 DSC in a closed pan with a heating rate of 10 K/minute. The typical sample quantity is about 5 mg.

Compound: CC(C)C1C2CCC1c1c(NC(=O)c3cn(C)nc3C(F)F)cccc12 (stereo not drawn) [modification B, syn-3-difluoromethyl-1-methyl-1H-pyrazole-4-carboxylic acid (9-isopropyl-1,2,3,4-tetrahydro-1,4-methano-naphthalen-5-yl)-amide]
- water solubility [1]: lower than the water solubility of modification A
- thermodynamic stability [2]: substantially better thermodynamic stability than the modification A

— US8436037B2, “Process for the production of amides” (Syngenta Limited, priority 2005, dated 2013)
